The record followed here is patent US20250197905A1, “LEGIONAMINIC ACID GLYCOSYLTRANSFERASES FOR CHEMOENZYMATIC SYNTHESIS OF GLYCANS AND GLYCOCONJUGATES” (The Regents of the University of California, priority 2022, published 2025).

The assay deals with His6-AbGtr18. The assay can be described thus: Effects of metal ions, EDTA, and DTT on the activity of His6-AbGtr18. The conditions noted are these: 10 mM additive; 40° C., 30 minutes; pH 6.0; donor CMP-Leg5,7Ac2. The assay is classed as biochemical, A. baumannii K8. The procedure: Effects of metal ions, EDTA, and a reducing reagent DTT on the activity of His6-AbGtr18. Enzymatic assays were carried out in duplicate at 40° C. for 30 minutes in a total volume of 10 μL in citric acid-sodium citrate buffer ([…], pH 6.0) containing 1 mM CMP-Leg5,7Ac2, 1 mM GalNAcα2AA, His6-AbGtr18 (0.64 μM), and 10 mM of CaCl2), CuSO4, MgCl2, MnCl2, NiSO4, ZnCl2, ethylenediaminetetraacetic acid (EDTA), or dithiothreitol (DTT). Reactions without metal ions, EDTA, or DTT were used as controls. The reactions were quenched by adding 40 μL methanol. Samples were centrifuged, and then analyzed by UHPLC as described above for pH profile studies.

With `O[C@H](CS)[C@H](O)CS` (racemic) [DTT, dithiothreitol], the “Effect on the activity of AbGtr18” value was “no significant effect”.
The same measure for `[Cl][Mn][Cl]` [Mn^2+, MnCl2]: “almost abolished its activity completely”; for `O=C(O)CN(CCN(CC(=O)O)CC(=O)O)CC(=O)O` [EDTA, ethylenediaminetetraacetic acid]: “no effect”.
The same measure for `[Ca+2].[Cl-].[Cl-]` [Ca^2+, CaCl2]: “no significant effect”.
In the case of `[Cl-].[Cl-].[Zn+2]` [Zn^2+, ZnCl2], the “Effect on the activity of AbGtr18” value is on record as “almost abolished its activity completely”.
